In US10517926B2, “Oligopeptide having proinflammatory cytokine secretion-inhibiting activity” (Osaka University, priority 2015, dated 2019):

Tests used:
MG6 cells = assay: Proinflammatory cytokine secretion inhibition, LPS-stimulated microglial cells (ELISA); type: cell-based, mouse; details: for proinflammatory cytokine secretion-inhibiting activity on the MG6 cells: same test as Example 2
Description: MG6 cells (mouse-derived microglial cell line) were cultured in a DMEM medium (+4% FBS) containing MHP1 or MHP2 (final concentration: 50 or 100 μg/ml), and LPS (final concentration: 2 ng/ml) for 24 hours by a standard method. After culture, the concentrations of IL-6 and TNFα in the medium were measured by the ELISA method. In the Examples of the present application, the ELISA method was performed using a kit (Quantikine ELISA Mouse TNF-α or Quantikine ELISA Mouse IL-6, produced by R&D Systems). The results are shown in FIG. 1 (IL-6) and FIG. 2 (TNFα).
The proinflammatory cytokine secretion-inhibiting effect was examined in the same as in Example 2, except that the final concentration of MHP1 was set to 100 μg/ml, and that RANKL full-length protein was used at a final concentration of 10 ng/ml or 100 ng/ml as the comparison target.

[1] = system: LPS-administered mice (Balb/c); assay: Septicemia model, LPS intraperitoneal, survival; type: in vivo, mouse; details: LPS 10 mg/kg + MHP2 5 mg/kg or 10 mg/kg i.p.; LPS only: 2 of 3 died; FIG. 17
Description: To wild-type mice (Balb/c, 5-week-old female mice), LPS (10 mg/kg) was intraperitoneally administered, or LPS (10 mg/kg) and MHP-2 (5 mg/kg or 10 mg/kg) were intraperitoneally administered. After administration, the survival rate of the mice was measured.

[2] = system: osteoclast precursor cells; assay: Osteoclast differentiation, Osteoclast Culture Kit (TRAP and nuclear staining); type: cell-based; details: with M-CSF 50 ng/ml; MHP1 30, 50 or 100 μg/ml or RANKL protein 50 ng/ml; FIG. 13
Description: Osteoclast Culture Kit V-2 (OSC33, produced by Cosmo Bio Co., Ltd.) was used. According to the manual of the kit, culture of osteoclast precursor cells was started in the presence of M-CSF (final concentration: 50 ng/ml) in the A and B groups, and in the presence of M-CSF (final concentration: 50 ng/ml) and MHP1 (final concentration: 30, 50, or 100 μg/ml) in the C and D groups. Thereafter, 24 hours to 7 days after the start of culture, the A group was cultured in the presence of M-CSF (final concentration: 50 ng/ml), the B group was cultured in the presence of M-CSF (final concentration: 50 ng/ml) and RANKL protein (final concentration: 50 ng/ml), the C group was cultured in the presence of M-CSF (final concentration: 50 ng/ml) and MHP1 (final concentration: 30, 50, or 100 μg/ml), and the D group was cultured in the presence of M-CSF (final concentration: 50 ng/ml), RANKL protein (final concentration: 50 ng/ml), and MHP1 (final concentration: 30, 50, or 100 μg/ml). After culture, the cells were subjected to TRAP staining and nuclear staining according to a standard method.

THP1 cells = assay: Proinflammatory cytokine secretion inhibition, human macrophage cells; type: cell-based; details: MHP6 10-100 μg/ml or MHP1 100 μg/ml, LPS 2 ng/ml, 24 hours, FIG. 14
Description: THP1 cells (human-derived macrophage cell line) were cultured in a DMEM medium (+4% FBS) containing MHP6 (human-derived; final concentration: 10, 30, 50, or 100 μg/ml) or MHP1 (mouse-derived; final concentration: 100 μg/ml), and LPS (final concentration: 2 ng/ml) for 24 hours by a standard method. After culture, the concentration of IL-6 in the medium was measured by the ELISA method.

In the case of “LMVYVVKTSIKIPSSHNLMKGGS (listed as Mus musculus) [MHP12]”, the “proinflammatory cytokine secretion-inhibiting activity on the MG6 cells” value (MG6 cells) is reported as “showed proinflammatory cytokine secretion-inhibiting activity”.
For “DYLQLMVYVVKTSIKIPSSHNLMKGGSTKN (listed as Mus musculus) [MHP2]”, the “increase in the amount of IL-6 secretion by LPS” value (MG6 cells; MG6 cells, peptide 50 or 100 μg/ml, LPS 2 ng/ml, 24 hours, FIG. 1) was “suppressed”, the “increase in the amount of TNFα secretion by LPS” value (MG6 cells; MG6 cells, peptide 50 or 100 μg/ml, LPS 2 ng/ml, 24 hours, FIG. 2) was “suppressed” and the mice that died [1] was “no mouse”.
In the case of “RANKL: RANKL protein (Recombinant Murin sRANKL Ligand (Cat No. 315-11): produced by Peprotech) (LMVYVVKTSIKIPSSHNLMKGGSTKNWSGN) [reference compound]”, the “differentiation of osteoclasts by the substance itself” value [2] is reported as “promoted”.
In the case of “LMVYVTKTSIKIPSSHTLMKGGSTKYWSGN (listed as Homo sapiens) [MHP6]”, the “proinflammatory cytokine (IL-6) secretion-inhibiting activity on human-derived macrophage cells” value (THP1 cells) is reported as “exhibited proinflammatory cytokine secretion-inhibiting activity”.
In the case of “LMVYVVKTSIK (listed as Mus musculus) [MHP17]”, the “proinflammatory cytokine secretion-inhibiting activity on the MG6 cells” value (MG6 cells) is reported as “showed proinflammatory cytokine secretion-inhibiting activity”.
In the case of “LMVYVVKTSIKIPSSHNLMKGG (listed as Mus musculus) [MHP5]”, the “proinflammatory cytokine secretion-inhibiting activity on the MG6 cells” value (MG6 cells) is reported as “showed proinflammatory cytokine secretion-inhibiting activity”.
In the case of “HETSGSVPADYLQLMVYVVKTSIKIPSS (listed as Mus musculus) [MHP3]”, the “proinflammatory cytokine secretion-inhibiting activity on the MG6 cells” value (MG6 cells) is reported as “did not show proinflammatory cytokine secretion-inhibiting activity”.
“LMVYVVKTSIKIPSS (listed as Mus musculus) [MHP4]” was tested, and the “proinflammatory cytokine secretion-inhibiting activity on the MG6 cells” value (MG6 cells) was “showed proinflammatory cytokine secretion-inhibiting activity”.
With “LMVYVVKTSIKIPSSHNLMKGGSTKN (listed as Mus musculus) [MHP13]” the “proinflammatory cytokine secretion-inhibiting activity on the MG6 cells” value (MG6 cells) was “showed proinflammatory cytokine secretion-inhibiting activity”.
